# Results reported in US20240325398A1, “COMBINATION THERAPIES” (Infinity Pharmaceuticals, Inc., priority 2014, published 2024).
# How the values were obtained:
# DOHH2 = assay: Compound 1 with dexamethasone, CellTiter-Glo viability 72 h, combination index; assay type: cell-based; conditions: DOHH2
# Method: (§1) The effects of Compound 1 with dexamethasone were examined in a panel of cell lines. Cells were cultured and assayed as follows. Compound 1 was serially diluted with cell culture medium and various DMSO concentrations. The top concentration of Compound 1 exposed to cells was 3 uM for cell lines other than WSU-NHL and DOHH2. For WSU-NHL and DOHH2 cell lines, the top concentration of Compound 1 exposed to the cells was 0.3 uM. Dexamethasone was serially diluted in culture media and phosphate buffered saline (PBS). The top concentration of dexamethasone used on cells was 3 uM. Cells were at least 73% viable and were counted and diluted for plating at a density of about 92,000 cell/mL, 130 uL cells per well in 96 well plates for SUDHL6, Karpas 422, SUDHL4, WSU-NHL, RL, and DOHH2 cell lines. The SUDHL10 cell line was plated at a density of about 46,000 cells/mL, 130 uL cells per well in 96 well plates.
# (§2) Various concentrations of Compound 1 and various combinations of dexamethasone were added to various wells of cells. Single agents (Compound 1 or dexamethasone alone) were also added to some wells of cells. Cells were incubated with compounds for 72 hours. To assay for effects of the compounds on cell viability, a CellTiter-Glo® luminescent cell viability assay (commercially available) was used. To each plate of cells, 100 uL CellTiter-Glo reagent was added, incubated, and luminescence quantified using a […].
# The results for cell line DOHH2 are depicted in FIG. 11 and Table 11. […] Table 11 depicts combination index (CI) values for different combinations of dexamethasone/Compound 1 concentrations.
# SUDHL6 = assay: as above; assay type: cell-based; conditions: SUDHL6
# Method: as §1, §2
# The result for cell line SUDHL6 is depicted in FIG. 12 and in Table 12. […] Table 12 depicts combination index (CI) values for different combinations of dexamethasone/Compound 1 concentrations.
smiles,measurement,setting,value
"C[C@H](Nc1ncnc2[nH]cnc12)c1cc2cccc(Cl)c2c(=O)n1-c1ccccc1 [Compound 1, (S)-3-(1-((9H-purin-6-yl)amino)ethyl)-8-chloro-2-phenylisoquinolin-1(2H)-one]",combination index (CI),DOHH2; Compound 1 100 nM + Dexamethasone 37.03704 nM,A (A = 0.0001 to <0.3)
same,combination index (CI),DOHH2; Compound 1 100 nM + Dexamethasone 111.1111 nM,A (A = 0.0001 to <0.3)
same,combination index (CI),DOHH2; Compound 1 100 nM + Dexamethasone 333.3333 nM,A (A = 0.0001 to <0.3)
same,combination index (CI),DOHH2; Compound 1 100 nM + Dexamethasone 1000 nM,A (A = 0.0001 to <0.3)
same,combination index (CI),DOHH2; Compound 1 100 nM + Dexamethasone 3000 nM,A (A = 0.0001 to <0.3)
same,combination index (CI),DOHH2; Compound 1 300 nM + Dexamethasone 1.371742 nM,B (B = 0.3 to <0.5)
same,combination index (CI),DOHH2; Compound 1 300 nM + Dexamethasone 4.115226 nM,B (B = 0.3 to <0.5)
same,combination index (CI),DOHH2; Compound 1 300 nM + Dexamethasone 12.34568 nM,A (A = 0.0001 to <0.3)
same,combination index (CI),DOHH2; Compound 1 300 nM + Dexamethasone 37.03704 nM,A (A = 0.0001 to <0.3)
same,combination index (CI),DOHH2; Compound 1 300 nM + Dexamethasone 111.1111 nM,A (A = 0.0001 to <0.3)
same,combination index (CI),DOHH2; Compound 1 300 nM + Dexamethasone 333.3333 nM,A (A = 0.0001 to <0.3)
same,combination index (CI),DOHH2; Compound 1 300 nM + Dexamethasone 1000 nM,A (A = 0.0001 to <0.3)
same,combination index (CI),DOHH2; Compound 1 300 nM + Dexamethasone 3000 nM,A (A = 0.0001 to <0.3)
same,combination index (CI),SUDHL6; Compound 1 1.4 nM + Dexamethasone 1.4 nM,E (E = >1)
same,combination index (CI),SUDHL6; Compound 1 1.4 nM + Dexamethasone 4.1 nM,E (E = >1)
same,combination index (CI),SUDHL6; Compound 1 1.4 nM + Dexamethasone 12.3 nM,E (E = >1)
same,combination index (CI),SUDHL6; Compound 1 1.4 nM + Dexamethasone 37 nM,E (E = >1)
same,combination index (CI),SUDHL6; Compound 1 1.4 nM + Dexamethasone 111.1 nM,A (A = 0.0001 to <0.3)
same,combination index (CI),SUDHL6; Compound 1 1.4 nM + Dexamethasone 333.3 nM,A (A = 0.0001 to <0.3)
same,combination index (CI),SUDHL6; Compound 1 1.4 nM + Dexamethasone 1000 nM,A (A = 0.0001 to <0.3)
same,combination index (CI),SUDHL6; Compound 1 1.4 nM + Dexamethasone 3000 nM,A (A = 0.0001 to <0.3)
same,combination index (CI),SUDHL6; Compound 1 4.1 nM + Dexamethasone 1.4 nM,E (E = >1)
same,combination index (CI),SUDHL6; Compound 1 4.1 nM + Dexamethasone 4.1 nM,B (B = 0.3 to <0.5)
same,combination index (CI),SUDHL6; Compound 1 4.1 nM + Dexamethasone 12.3 nM,E (E = >1)
same,combination index (CI),SUDHL6; Compound 1 4.1 nM + Dexamethasone 37 nM,C (C = 0.5 to <0.7)
same,combination index (CI),SUDHL6; Compound 1 4.1 nM + Dexamethasone 111.1 nM,A (A = 0.0001 to <0.3)
same,combination index (CI),SUDHL6; Compound 1 4.1 nM + Dexamethasone 333.3 nM,A (A = 0.0001 to <0.3)
same,combination index (CI),SUDHL6; Compound 1 4.1 nM + Dexamethasone 1000 nM,A (A = 0.0001 to <0.3)
same,combination index (CI),SUDHL6; Compound 1 4.1 nM + Dexamethasone 3000 nM,A (A = 0.0001 to <0.3)
same,combination index (CI),SUDHL6; Compound 1 12.3 nM + Dexamethasone 1.4 nM,E (E = >1)
same,combination index (CI),SUDHL6; Compound 1 12.3 nM + Dexamethasone 4.1 nM,E (E = >1)
same,combination index (CI),SUDHL6; Compound 1 12.3 nM + Dexamethasone 12.3 nM,E (E = >1)
same,combination index (CI),SUDHL6; Compound 1 12.3 nM + Dexamethasone 37 nM,E (E = >1)
same,combination index (CI),SUDHL6; Compound 1 12.3 nM + Dexamethasone 111.1 nM,A (A = 0.0001 to <0.3)
same,combination index (CI),SUDHL6; Compound 1 12.3 nM + Dexamethasone 333.3 nM,A (A = 0.0001 to <0.3)
same,combination index (CI),SUDHL6; Compound 1 12.3 nM + Dexamethasone 1000 nM,A (A = 0.0001 to <0.3)
same,combination index (CI),SUDHL6; Compound 1 12.3 nM + Dexamethasone 3000 nM,A (A = 0.0001 to <0.3)
same,combination index (CI),SUDHL6; Compound 1 37 nM + Dexamethasone 1.4 nM,E (E = >1)
same,combination index (CI),SUDHL6; Compound 1 37 nM + Dexamethasone 4.1 nM,E (E = >1)
same,combination index (CI),SUDHL6; Compound 1 37 nM + Dexamethasone 12.3 nM,E (E = >1)
same,combination index (CI),SUDHL6; Compound 1 37 nM + Dexamethasone 37 nM,E (E = >1)
same,combination index (CI),SUDHL6; Compound 1 37 nM + Dexamethasone 111.1 nM,A (A = 0.0001 to <0.3)
same,combination index (CI),SUDHL6; Compound 1 37 nM + Dexamethasone 333.3 nM,A (A = 0.0001 to <0.3)
same,combination index (CI),SUDHL6; Compound 1 37 nM + Dexamethasone 1000 nM,A (A = 0.0001 to <0.3)
same,combination index (CI),SUDHL6; Compound 1 37 nM + Dexamethasone 3000 nM,A (A = 0.0001 to <0.3)
same,combination index (CI),SUDHL6; Compound 1 111.1 nM + Dexamethasone 1.4 nM,E (E = >1)
same,combination index (CI),SUDHL6; Compound 1 111.1 nM + Dexamethasone 4.1 nM,E (E = >1)
same,combination index (CI),SUDHL6; Compound 1 111.1 nM + Dexamethasone 12.3 nM,E (E = >1)
same,combination index (CI),SUDHL6; Compound 1 111.1 nM + Dexamethasone 37 nM,E (E = >1)
same,combination index (CI),SUDHL6; Compound 1 111.1 nM + Dexamethasone 111.1 nM,A (A = 0.0001 to <0.3)
same,combination index (CI),SUDHL6; Compound 1 111.1 nM + Dexamethasone 333.3 nM,A (A = 0.0001 to <0.3)
